Test results: patent US20220380366A1, “HETEROCYCLIC SULFOXIMINE COMPOUND AND INTERMEDIATE THEREOF, PREPARATION METHOD THEREFOR, AND APPLICATION THEREOF” (priority 2019, published 2022)
Where two headings read alike, the source gives them in different places.

What was measured:
[1] = tested on: Phospho-RET in LC-2/ad lung cancer cells; assay: Phospho-RET ELISA in LC-2/ad tumor cells; assay type: cell-based; settings: Homo sapiens, LC-2-ad, 1 h, read-out: Cell IC50 Phospho-RET
Method: (§1) The compounds of the present invention were dissolved in dimethyl sulfoxide (DMSO) to prepare 10 mM stock solutions, and ten different doses by 3-fold serial dilutions from 10 mM were prepared. An ELISA assay format was used in the test.
(§2) PathScan® Phospho-Ret (panTyr) and p44/42 MAPK (Thr202/Tyr204) (ERK) Sandwich ELISA kits were purchased from Cell Signaling Technology. The LC-2/ad lung cancer cell line was purchased from Sigma-Aldrich. […] The medium was supplemented with 10% fetal bovine serum (FBS), 100 μg/mL penicillin and 100 μg/mL streptomycin, and the cultures were maintained at 37° C. in a humidified atmosphere of 5% CO2 and 95% air.
(§3) a) 1.5×10^4 LC-2/ad cells were seeded in the wells of a 96-well tissue culture plate overnight;
(§4) b) the cells were treated with DMSO or the test compound in DMSO (the initial concentration was 1 μM, and ten doses by 3-fold serial dilutions) for one hour;
(§5) The plate was shaken for 1 minute, then placed on a rocking platform at 4° C. for 30 minutes;
(§6) d) 80 μL/well of lysate was added to the appropriate wells of each ELISA plate and the plate was incubated overnight at 4° C. on a rocking platform;
(§7) e) the contents of the plate were discarded into a container and the wells were washed for four times with 200 μL/well of 1×ELISA wash buffer;
(§8) f) 100 μL of reconstituted Phospho-Ret(panTyr) or Phospho-ERK(Thr202/Tyr204; p44/42MAPK) detection antibody was added to the appropriate wells and the plate was incubated at 37° C. for 1 hour;
(§9) g) the washing procedure was repeated and 100 μL of reconstituted HRP-linked secondary antibody was added to each well of two plates and the plates were incubated at 37° C. for 30 minutes;
(§10) h) the washing procedure was repeated, 100 μL of TMB substrate was added to each well, and the plates were incubated at 37° C. for 45 minutes;
(§11) i) 100 μL of STOP solution was added to each well and the plate was gently shaken for a few seconds.

RET(V804M) mutant = biological target: T1, RET(V804M) mutant (Homo sapiens, UniProt P07949, V804M); assay: Biochemical IC50 of RET(V804M) mutant (33P-ATP filter binding, Reaction Biology)
T1 construct: purchased Reaction Biology Corporation (contract assay; enzyme is the CRO's)
Method: (§12) For detailed test methods, the following references were referred to: T. Anastassiadis, S. W. Deacon, K. Devarajan, H. Ma, J. R. Peterson. […] Nat. Biotech.
(§13) The compounds of the present invention were dissolved in dimethyl sulfoxide (DMSO) to prepare 10 mM stock solutions, and ten different doses by 3-fold serial dilutions from 10 mM were prepared. The ATP concentration used in this determination was 1 μM.
(§14) Base reaction buffer: 20 mM 4-(2-hydroxyethyl)-1-piperazineethanesulfonic acid buffer (Hepes, pH 7.5), 10 mM magnesium chloride, 1 mM ethylene glycol-bis(3-aminoethylether)-N,N,N′,N′-tetraacetic acid (EGTA), 0.02% Brij™-35 (purchased from ThermoFisher Scientific), 0.02 mg/mL bovine serum albumin (BSA), 0.1 mM sodium orthovanadate (Na3VO4), 2 mM dithiothreitol (DTT), 1% dimethyl sulfoxide (DMSO).
(§15) a) adding the corresponding substrate to a freshly prepared base reaction buffer;
(§16) b) adding necessary cofactors;
(§17) c) adding kinase and shake gently;
(§18) d) adding the compounds in DMSO using Acoustic technology (Echo550; nanoliter range) and incubating at room temperature for 20 minutes;
(§19) e) adding 33P-ATP (specific activity 10 μCi/μL) to initiate the reaction;
(§20) f) incubating the kinase reaction at room temperature for 2 hours;
(§21) g) spotting the resultant of reaction on P81 ion exchange paper (purchased from Whatman);
(§22) h) detecting kinase activity by filter binding assay.
(§23) IC50 values were generated using Prism (GraphPad software).

wild-type RET kinase = biological target: T2, wild-type RET kinase (Homo sapiens, UniProt P07949); assay: Biochemical IC50 of wild-type RET kinase (33P-ATP filter binding, Reaction Biology)
T2 construct: purchased Reaction Biology Corporation (contract assay; enzyme is the CRO's)
Method: as §12, §13, §14, §15, §16, §17, §18, §19, §20, §21, §22, §23

RET-CCDC6 = biological target: T3, RET-CCDC6 (Homo sapiens, UniProt P07949); assay: Biochemical IC50 of RET-CCDC6 fusion (33P-ATP filter binding, Reaction Biology)
T3 construct: CCDC6 (fusion partner, UniProt Q16204); purchased Reaction Biology Corporation (contract assay; enzyme is the CRO's); the other entry of the earlier key: CCDC6 (Q16204, Coiled-coil domain-containing protein 6)
T3 sequence (P07949 with tags, fused parts or gaps): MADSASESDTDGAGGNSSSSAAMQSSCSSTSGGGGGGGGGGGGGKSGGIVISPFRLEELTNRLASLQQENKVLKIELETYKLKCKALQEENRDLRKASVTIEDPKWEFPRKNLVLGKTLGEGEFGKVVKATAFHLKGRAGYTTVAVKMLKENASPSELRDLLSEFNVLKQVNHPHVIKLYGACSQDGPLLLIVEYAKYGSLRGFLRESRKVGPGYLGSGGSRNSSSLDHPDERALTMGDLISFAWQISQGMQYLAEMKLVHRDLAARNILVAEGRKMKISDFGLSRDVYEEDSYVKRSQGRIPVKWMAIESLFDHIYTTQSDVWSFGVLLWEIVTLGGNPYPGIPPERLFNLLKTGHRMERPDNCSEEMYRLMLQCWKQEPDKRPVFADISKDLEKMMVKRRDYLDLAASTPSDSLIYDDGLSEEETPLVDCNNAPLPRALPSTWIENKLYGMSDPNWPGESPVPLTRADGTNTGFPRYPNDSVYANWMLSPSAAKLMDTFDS
Method: as §12, §13, §14, §15, §16, §17, §18, §19, §20, §21, §22, §23

[2] = tested on: Phospho-ERK in LC-2/ad lung cancer cells; assay: Phospho-ERK ELISA in LC-2/ad tumor cells; assay type: cell-based; settings: Homo sapiens, 1 h, read-out: Cell IC50 Phospho-ERK
Method: as §1, §2, §3, §4, §5, §6, §7, §8, §9, §10, §11

[3] = RET(V804M) mutant, ATP 1 μM, 33P-ATP filter binding, read-out: Biochemical IC50 RET (V804M)
[4] = wild-type RET kinase, ATP 1 μM, 33P-ATP filter binding, read-out: Biochemical IC50 RET
[5] = RET-CCDC6 fusion, ATP 1 μM, 33P-ATP filter binding, read-out: Biochemical IC50 RET-CCDC6

T2 sequence (P07949 29-1114): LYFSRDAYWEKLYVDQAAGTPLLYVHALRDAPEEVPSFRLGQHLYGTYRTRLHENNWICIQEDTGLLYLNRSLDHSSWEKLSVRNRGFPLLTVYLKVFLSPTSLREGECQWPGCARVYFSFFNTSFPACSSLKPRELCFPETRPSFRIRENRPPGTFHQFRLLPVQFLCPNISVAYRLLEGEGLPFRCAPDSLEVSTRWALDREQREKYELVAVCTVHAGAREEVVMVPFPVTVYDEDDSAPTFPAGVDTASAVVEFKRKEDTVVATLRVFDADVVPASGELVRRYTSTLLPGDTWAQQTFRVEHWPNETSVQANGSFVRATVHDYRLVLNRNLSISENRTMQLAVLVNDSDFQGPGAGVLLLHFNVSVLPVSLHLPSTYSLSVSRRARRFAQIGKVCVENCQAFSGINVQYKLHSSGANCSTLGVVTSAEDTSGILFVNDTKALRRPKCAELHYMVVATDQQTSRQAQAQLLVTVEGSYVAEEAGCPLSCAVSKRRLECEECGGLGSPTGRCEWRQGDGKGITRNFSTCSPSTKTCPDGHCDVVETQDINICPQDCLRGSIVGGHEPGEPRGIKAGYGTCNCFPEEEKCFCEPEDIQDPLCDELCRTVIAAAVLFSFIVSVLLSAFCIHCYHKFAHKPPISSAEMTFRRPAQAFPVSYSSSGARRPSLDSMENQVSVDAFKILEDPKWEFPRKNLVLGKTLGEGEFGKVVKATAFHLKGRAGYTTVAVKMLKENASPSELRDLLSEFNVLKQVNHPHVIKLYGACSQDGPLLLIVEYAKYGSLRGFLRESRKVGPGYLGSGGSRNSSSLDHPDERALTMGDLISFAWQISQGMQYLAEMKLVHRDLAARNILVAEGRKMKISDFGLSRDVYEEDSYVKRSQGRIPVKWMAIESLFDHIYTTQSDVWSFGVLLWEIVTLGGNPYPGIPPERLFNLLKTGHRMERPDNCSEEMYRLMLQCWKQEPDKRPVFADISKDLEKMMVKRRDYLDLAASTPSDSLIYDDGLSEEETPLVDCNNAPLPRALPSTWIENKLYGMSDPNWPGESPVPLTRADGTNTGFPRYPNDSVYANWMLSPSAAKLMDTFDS
T1 sequence (P07949 29-1114 V804M): as the sequence (P07949 29-1114) above, with V776M counted along it

Row | SMILES | IC50 [1] [nM] | IC50 (RET(V804M) mutant) [nM] | IC50 (wild-type RET kinase) [nM] | IC50 (RET-CCDC6) [nM] | IC50 [2] [nM] | IC50 (RET(V804M) mutant; [3]) [nM] | IC50 (wild-type RET kinase; [4]) [nM] | IC50 (RET-CCDC6; [5]) [nM]
1 | COc1ccc(CN=S2(=O)CCN(c3ccc(-c4cc(-c5cnn(C)c5)cn5ncc(C#N)c45)cn3)CC2)cn1 [Ex. 14, 4-(6-(1-(((6-methoxypyridin-3-yl)methyl)imino)-1-oxothiomorpholinyl)pyridin-3-yl)-6-(1-methyl-1H-pyrazole-4-yl)pyrazolo[1,5-a]pyridine-3-carbonitrile] | 11.5 | 5.21 | 0.657 | 0.336 | 82.5 |  |  | 
2 | COc1ccc(N=S2(=O)CCN(c3ccc(-c4cc(-c5cnn(C)c5)cn5ncc(C#N)c45)cn3)CC2)cn1 [Ex. 15, 4-(6-(1-((6-methoxypyridin-3-yl)imino)-1-oxothiomorpholinyl)pyridin-3-yl)-6-(1-methyl-1H-pyrazole-4-yl)pyrazolo[1,5-a]pyridine-3-carbonitrile] | 0.51 |  |  |  | 321 | 1.72 | 0.759 | 0.518
3 | Cn1cc(-c2cc(-c3ccc(N4CCC(N=S(C)(C)=O)CC4)nc3)c3c(C#N)cnn3c2)cn1 [Ex. 16, 4-(6-(4-((dimethyloxo-λ^4-sulfinyl)amino)piperidin-1-yl)pyridin-3-yl)-6-(1-methyl-1H-pyrazole-4-yl)pyrazolo[1,5-a]pyridine-3-carbonitrile] | 66.4 | 5.55 | 1.16 | 0.619 | 7.19 |  |  | 
4 | Cn1cc(-c2cc(-c3ccc(N4CCC(N=[S@](C)(=O)c5ccccc5)CC4)nc3)c3c(C#N)cnn3c2)cn1 [Ex. 18, 4-(6-(4-(((R)—S-methyl-S-phenyl-oxo-λ^4-sulfinyl)amino)piperidin-1-yl)pyridin-3-yl)-6-(1-methyl-1H-pyrazole-4-yl)pyrazolo[1,5-a]pyridine-3-carbonitrile] | 7.1 |  |  |  | 6.83 | 4.72 | 0.907 | 0.501
5 | Cn1cc(-c2cn3ncc(C#N)c3c(-c3ccc(N4CCS(=N)(=O)CC4)nc3)n2)cn1 [Ex. 20, 4-(6-(1-imino-1-oxothiomorpholinyl)pyridin-3-yl)-6-(1-methyl-1H-pyrazole-4-yl)pyrazolo[1,5-a]pyrazine-3-carbonitrile] | 91.4 | 7.91 | 1.16 | 0.677 | 7.77 |  |  | 
6 | COc1ccc(CN=S2(=O)CCN(c3ccc(-c4nc(-c5cnn(C)c5)cn5ncc(C#N)c45)cn3)CC2)cn1 [Ex. 21, 4-(6-(1-(((6-methoxypyridin-3-yl)methyl)imino)-1-oxothiomorpholinyl)pyridin-3-yl)-6-(1-methyl-1H-pyrazole-4-yl)pyrazolo[1,5-a]pyrazine-3-carbonitrile] | 21.3 | 7.83 | 1.02 | 0.528 | 6.42 |  |  | 
7 | Cn1cc(-c2cn3ncc(C#N)c3c(-c3ccc(N4CCC(N=[S@](C)(=O)c5ccccc5)CC4)nc3)n2)cn1 [Ex. 25, 4-(6-(4-(((R)—S-methyl-S-phenyl-oxo-λ^4-sulfinyl)amino)piperidin-1-yl)pyridin-3-yl)-6-(1-methyl-1H-pyrazole-4-yl)pyrazolo[1,5-a]pyrazine-3-carbonitrile] | 84.7 | 10.6 | 2.02 | 1.15 | 9.27 |  |  | 
